Data on 25 molecules can be found in ChEMBL document CHEMBL3351409, “Repurposing cryptosporidium inosine 5'-monophosphate dehydrogenase inhibitors as potential antibacterial agents” (ACS Med Chem Lett, 2014).

In brackets after ≈: the same amount, converted by molar mass. Activity calls are given as the source filed them. The rule behind the calls is not given here.

For assay [1], the target named is T1, Inosine-5'-monophosphate dehydrogenase (Bacillus anthracis, UniProt A0A6L8P2U9). Briefly: Non-competitive inhibition of Bacillus anthracis IMPDH preincubated for 10 mins before IMP substrate addition by spectrophotometry.
T1 sequence (A0A6L8P2U9 whole entry): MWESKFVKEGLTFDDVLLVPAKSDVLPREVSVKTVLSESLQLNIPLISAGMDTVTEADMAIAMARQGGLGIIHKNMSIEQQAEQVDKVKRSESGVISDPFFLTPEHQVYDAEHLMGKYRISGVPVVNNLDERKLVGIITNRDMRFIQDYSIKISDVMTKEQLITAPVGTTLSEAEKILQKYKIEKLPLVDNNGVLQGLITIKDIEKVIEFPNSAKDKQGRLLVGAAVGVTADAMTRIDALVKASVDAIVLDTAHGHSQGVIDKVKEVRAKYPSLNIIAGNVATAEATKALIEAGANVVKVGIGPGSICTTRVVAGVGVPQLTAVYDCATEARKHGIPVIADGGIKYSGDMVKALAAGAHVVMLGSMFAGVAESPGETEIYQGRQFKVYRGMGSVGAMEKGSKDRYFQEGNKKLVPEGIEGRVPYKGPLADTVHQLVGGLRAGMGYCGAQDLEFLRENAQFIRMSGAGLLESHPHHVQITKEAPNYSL
Assay [2] addresses T2, Inosine-5'-monophosphate dehydrogenase (Cryptosporidium parvum, UniProt Q8T6T2).
T2 sequence (Q8T6T2 whole entry): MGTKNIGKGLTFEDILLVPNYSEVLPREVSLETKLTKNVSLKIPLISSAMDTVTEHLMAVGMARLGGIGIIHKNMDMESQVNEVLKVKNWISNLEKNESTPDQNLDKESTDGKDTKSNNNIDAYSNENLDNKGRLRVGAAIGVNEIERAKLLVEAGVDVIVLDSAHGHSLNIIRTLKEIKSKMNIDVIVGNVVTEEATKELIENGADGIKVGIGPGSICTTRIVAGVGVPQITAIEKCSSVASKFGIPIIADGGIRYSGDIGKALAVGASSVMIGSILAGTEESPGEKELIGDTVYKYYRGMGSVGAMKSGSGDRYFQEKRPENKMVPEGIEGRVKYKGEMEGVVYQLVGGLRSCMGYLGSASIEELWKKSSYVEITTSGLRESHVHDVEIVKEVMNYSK
Briefly: Un-competitive inhibition of Cryptosporidium IMPDH preincubated for 10 mins before IMP substrate addition by spectrophotometry.

Assay [3] addresses T2, Inosine-5'-monophosphate dehydrogenase. In words: Non-competitive inhibition of Cryptosporidium IMPDH preincubated for 10 mins before NAD+ substrate addition by spectrophotometry.
Assay [4] concerns the target T1, Inosine-5'-monophosphate dehydrogenase. Briefly: Non-competitive inhibition of Bacillus anthracis IMPDH preincubated for 10 mins before NAD+ substrate addition by spectrophotometry.
For assay [5] the target is unchanged. Briefly: Inhibition of Bacillus anthracis IMPDH preincubated for 10 mins before substrate addition by spectrophotometry.
Assay [6] in a line: Selectivity ratio of IC50 for Bacillus anthracis IMPDH to IC50 for Cryptosporidium IMPDH.
For assay [7], the target named is T2, Inosine-5'-monophosphate dehydrogenase. Briefly: Competitive inhibition of Cryptosporidium IMPDH preincubated for 10 mins before NAD+ substrate addition by spectrophotometry.
Assay [8] shares this target. In words: Inhibition of Cryptosporidium IMPDH preincubated for 10 mins before substrate addition by spectrophotometry.
The nature of assay [9]: Antibacterial activity against Bacillus anthracis Sterne 7702. The class given is functional, Bacillus anthracis str. Sterne.
Assay [10] is described as follows: Antibacterial activity against Bacillus anthracis Sterne 7702 in presence of 0.01 % guanine. The class given is functional, Bacillus anthracis str. Sterne.
Assay [11] deals with Staphylococcus aureus. Briefly: Antibacterial activity against Staphylococcus aureus NCTC 8325. The class given is functional.
For assay [12], the system named is Staphylococcus aureus. In words: Antibacterial activity against Staphylococcus aureus NCTC 8325 in presence of 0.01 % guanine. It counts as functional.
The test system of assay [13] is Staphylococcus aureus. In words: Antibacterial activity against Staphylococcus aureus ATCC 13709 Smith. It counts as functional.
Assay [14] deals with Staphylococcus aureus. Briefly: Antibacterial activity against Staphylococcus aureus ATCC 13709 Smith in presence of 0.01 % guanine. The class given is functional.
For assay [15], the system named is Listeria monocytogenes. In words: Antibacterial activity against Listeria monocytogenes 10403S. The class given is functional.
Assay [16] concerns Listeria monocytogenes. In words: Antibacterial activity against Listeria monocytogenes 10403S in presence of 0.01 % guanine. It counts as functional.
For assay [17], the system named is Bacillus anthracis str. Sterne. In words: Ratio of MIC for Bacillus anthracis Sterne 7702 in presence of 0.01 % guanine to MIC for Bacillus anthracis Sterne 7702. The class given is functional.
The test system of assay [18] is Staphylococcus aureus. In words: Ratio of MIC for Staphylococcus aureus NCTC 8325 in presence of 0.01 % guanine to MIC for Staphylococcus aureus NCTC 8325. It counts as functional.
In assay [19] the test system is Staphylococcus aureus. Briefly: Ratio of MIC for Staphylococcus aureus ATCC 13709 Smith in presence of 0.01 % guanine to MIC for Staphylococcus aureus ATCC 13709 Smith. It counts as functional.
Assay [20] relates to Listeria monocytogenes. In words: Ratio of MIC for Listeria monocytogenes 10403S in presence of 0.01 % guanine to MIC for Listeria monocytogenes 10403S. The class given is functional.

As for `C/C(=N\O)c1cccc(C(C)(C)NC(=O)Nc2ccc(Cl)c(C(N)=O)c2)c1`, the Ki in assay [1] was found to be 1.5 nM; in assay [2] it was 2 nM; in [3], 6 nM; in [4], 8 nM.
In assay [5], `C[C@H](Oc1cccc(Cl)c1Cl)C(=O)Nc1cccc(NC(=O)c2ccncc2)c1` came in with a half-inhibitory concentration (IC50) of 300 nM. In assay [6], the Ratio IC50 was under 0.5.
Take `C[C@H](Oc1cccc2ccccc12)C(=O)Nc1ccc2oc(-c3ccncc3)nc2c1`: the Ki in [1] is 24 nM; in assay [2], 64 nM; in assay [7], 13 nM; in assay [4] it was 17 nM.
With `C[C@H](C(=O)Nc1ccc2oc(-c3ccncc3)nc2c1)c1ccccc1`, the Ratio IC50 in assay [6] is under 0.5.
Take `Cn1nc(CC(=O)Nc2ccc3oc4c(c3c2)CCCC4)c2ccccc2c1=O`: the inhibition constant Ki in assay [1] amounted to 12 nM; in assay [2], 5 nM; in assay [3] it was 49 nM; in assay [4], 500 nM.
For the molecule `C=C(C)c1cccc(C(C)(C)NC(=O)Nc2ccc(Cl)c(C(F)(F)F)c2)c1`, in assay [6], the Ratio IC50 was under 0.5.
In assay [8], `CC(Oc1ccc(-c2ccccc2)cc1)C(=O)Nc1ccc(Cl)cc1` (centres undefined) had an IC50 of 1100 nM. Moreover, the Ratio IC50 in assay [6] was under 0.5.
Regarding `C/C(=N\O)c1cccc(C(C)(C)NC(=O)Nc2ccc(Br)cc2)c1`, half-maximal inhibition in [8] (IC50) was put at 9 nM. The Ratio IC50 in [6] is under 0.5. The Ki stood at 48 nM in assay [1], 12 nM in assay [2], 15 nM in assay [3] and 2.3 nM in assay [4].
Take `C/C(=N\O)c1cccc(C(C)(C)NC(=O)Nc2ccc(Cl)c(Cl)c2)c1`: the half-inhibitory concentration (IC50) in [5] stood at 95 nM; in assay [8], 190 nM. Moreover, the Ratio IC50 in assay [6] was under 0.5.
`C[C@@H](Oc1cc[n+]([O-])c2ccccc12)c1cn(-c2ccc(Cl)cc2)nn1`: the Ki in assay [1] stood at 38 nM; in assay [2], 5 nM; in assay [7], 5 nM; in assay [4] it was 58 nM. Moreover, the minimum inhibitory concentration (MIC) is 1 µM (≈ 0.367 µg/mL) in [9]; 8 µM in [10]; 1.8 µM (≈ 0.66 µg/mL) in the assay with Staphylococcus aureus [11]; over 30 µM in the assay on Staphylococcus aureus [12]; 2 µM (≈ 0.734 µg/mL) with Staphylococcus aureus [13]; 16 µM in the assay with Staphylococcus aureus [14]. In the assay on Listeria monocytogenes [15], the MIC was 7.5 µM (≈ 2.75 µg/mL). Also, the MIC entry in the assay with Listeria monocytogenes [16] was “inactive”. The Ratio (in assay [17]; with Staphylococcus aureus [18]; with Staphylococcus aureus [19]; in the assay on Listeria monocytogenes [20]) was 8 each time.
Take `CC(=O)c1cccc(CNC(=O)Nc2ccc(Cl)cc2)c1`: the IC50 in assay [5] was 1200 nM; in assay [8], over 5000 nM. For the same molecule, the Ratio IC50 in assay [6] is under 0.5.
`O=C(Nc1ccc(Cl)cc1)C(Oc1cccc2ccccc12)C1CC1` (centres undefined) returned a half-inhibitory concentration (IC50) in assay [8] of over 5000 nM. In addition, the Ratio IC50 in assay [6] is under 0.5.
For `O=C(COc1cccc2ccccc12)Nc1ccc(Br)cc1`, the figures for the IC50 in [5] and in assay [8] were 760 nM and over 5000 nM, respectively. Also, the Ratio IC50 in assay [6] is under 0.5.
Take `C[C@H](Nc1cccc(Cl)c1Cl)C(=O)Nc1ccc2oc(-c3ccncc3)nc2c1`: the midpoint of inhibition in assay [5], the IC50, lay at 5 nM. Moreover, the Ratio IC50 in [6] was under 0.5.
Turning to `C[C@H](Oc1cccc(Cl)c1Cl)C(=O)Nc1ccc2nc(-c3ccncc3)oc2c1`, the IC50 in assay [5] is 10 nM. Besides, the Ratio IC50 in assay [6] is under 0.5.
In [8], `C/C(=N\O)c1cccc(C(C)(C)NC(=O)Nc2ccc(Cl)c(C(=O)N3CCN(C)CC3)c2)c1` gave an IC50 of 330 nM. Further, in [6], the Ratio IC50 was under 0.5.
Regarding `CC(Oc1cccc([N+](=O)[O-])c1Cl)C(=O)Nc1ccc2oc(-c3ccncc3)nc2c1` (centres undefined), the half-maximal inhibitory concentration (IC50) was 14 nM in assay [5] and 49 nM in assay [8]. Further, in [6], the Ratio IC50 was under 0.5.
On the same counts, the results for `CC(C)C(Oc1cccc2ccccc12)C(=O)Nc1ccc(Cl)cc1` (centres undefined) are 120 nM, 700 nM and under 0.5.
In the case of `C/C(=N\O)c1cccc(C(C)(C)NC(=O)Nc2ccc(Cl)c(C(F)(F)F)c2)c1`, the IC50 in assay [5] turned out to be 2 nM. For the same molecule, in assay [6], the Ratio IC50 is under 0.5.
On to `O=C(Cn1c(-c2ccccn2)nc2ccccc21)Nc1ccc2ccccc2c1`, for which the Ki amounted to 820 nM in assay [1], 13 nM in assay [2], 14 nM in assay [3] and 44 nM in assay [4].
As for `C[C@@H](Oc1cccc2cnccc12)c1cn(-c2ccc(Cl)cc2)nn1`, the MIC in assay [9] was 2 µM (≈ 0.702 µg/mL); in assay [10], over 30 µM; against Staphylococcus aureus [11], 7.5 µM (≈ 2.63 µg/mL); with Staphylococcus aureus [12] it was over 30 µM; in the assay with Staphylococcus aureus [13] it was 8 µM (≈ 2.81 µg/mL); in the assay with Staphylococcus aureus [14] it was over 30 µM. Besides, the lowest concentration to inhibit growth in the assay on Listeria monocytogenes [15] (MIC) was 3.8 µM (≈ 1.33 µg/mL). The Ratio (in [17]; with Staphylococcus aureus [18]; in the assay on Staphylococcus aureus [19]; in the assay on Listeria monocytogenes [20]) was 8 throughout.
The molecule `C[C@H](Oc1cccc(Cl)c1Cl)C(=O)Nc1ccc2oc(-c3ccncc3)nc2c1` displayed a half-inhibitory concentration (IC50) in assay [5] of 10 nM. Also, the Ratio IC50 in assay [6] was under 0.5.
For the molecule `C/C(=N\O)c1cccc(C(C)(C)NC(=O)Nc2ccc(Cl)c(C(=O)N3CCOCC3)c2)c1`, the MIC with Staphylococcus aureus [11] is 3.8 µM (≈ 1.74 µg/mL); with Staphylococcus aureus [12], 7.5 µM; in the assay on Staphylococcus aureus [13] it was 2 µM (≈ 0.918 µg/mL); in the assay on Staphylococcus aureus [14], over 30 µM; with Listeria monocytogenes [15] it was over 30 µM. Besides, the Ratio in the assay with Staphylococcus aureus [18], with Staphylococcus aureus [19] and with Listeria monocytogenes [20] was 8 in each case.
In the case of `O=C(Nc1ccc(Cl)cc1)C(Oc1cccc2ccccc12)c1ccccc1` (centres undefined), the IC50 in assay [5] was 2400 nM; in [8], over 5000 nM. For the same molecule, the Ratio IC50 in [6] was under 0.5.
For the molecule `CCN(CC)C(=O)c1ccc(NC(=O)NC(C)(C)c2cccc(/C(C)=N/O)c2)cc1Cl`, the MIC in assay [9] was 0.5 µM (≈ 0.222 µg/mL); in assay [10], over 30 µM; against Staphylococcus aureus [11], 0.9 µM (≈ 0.4 µg/mL); with Staphylococcus aureus [12], over 30 µM; against Staphylococcus aureus [13], 4 µM (≈ 1.78 µg/mL); in the assay on Staphylococcus aureus [14], over 30 µM. In the assay with Listeria monocytogenes [15], this molecule came in with a minimal inhibitory concentration (MIC) of 15 µM (≈ 6.67 µg/mL). Also, the Ratio (in assay [17]; in the assay with Staphylococcus aureus [18]; in the assay on Staphylococcus aureus [19]; in the assay on Listeria monocytogenes [20]) was 8 throughout.
